Measured values reported in patent publication US7396538B2, “Apparatus and method for delivery of mitomycin through an eluting biocompatible implantable medical device” (Endovascular Devices, Inc., priority 2002, dated 2008).
Converted amounts (≈) assume the structure as drawn.

System: vascular smooth muscle cell
Test: vascular smooth muscle cell (VSMC) proliferation study at varying concentrations of mitomycin C
Assay type: cell-based
Experimental: One example of a study was conducted to investigate the vascular smooth muscle cell proliferation (VSMC) from varying concentrations of the mitomycin C. […] A lower dosage of mitomycin C would still permit the advance of VSMC and contribute to increased restenosis and […]. Depending upon the observed biological effects from potentially cytotoxic local tissue levels, a higher concentration of mitomycin C may also still be sufficient.

## CO[C@@]12[C@H](COC(N)=O)C3=C(C(=O)C(C)=C(N)C3=O)N1C[C@@H]1N[C@@H]12 [mitomycin C]
Rattus norvegicus, extrapolation from a logarithmic curve of VSMC inhibition at various dosages, read-out: concentration at which about 50% VSMC inhibition occurs
  IC50: ~0.067 µg/mL (≈ 0.2 µM)
Dose of about 0.334 micrograms per milliliter
  VSMC inhibited: about 66%
Dose of about 25.1 micrograms per milliliter
  VSMC inhibited: about 98%
